Key:
[1] = target: T1, 3',5'-cyclic-AMP phosphodiesterase 4B (Homo sapiens, UniProt Q07343); experiment: Inhibition of recombinant PDE4B1 (unknown origin) expressed in Sf9 cells at 30 uM pre-incubated with compound for 15 mins before incubation with cAMP substrate for 1 hr
[2] = target: T1, 3',5'-cyclic-AMP phosphodiesterase 4B; experiment: Inhibition of recombinant PDE4B1 (unknown origin) expressed in Sf9 cells pre-incubated with compound for 15 mins before incubation with cAMP substrate for 1 hr
[3] = target: 3',5'-cyclic-AMP phosphodiesterase 4D (Homo sapiens, UniProt Q08499); experiment: Inhibition of recombinant PDE4D2 (unknown origin) expressed in Sf9 cells pre-incubated with compound for 15 mins before incubation with cAMP substrate for 1 hr
Chain of 3',5'-cyclic-AMP phosphodiesterase 4D (Q08499 whole entry): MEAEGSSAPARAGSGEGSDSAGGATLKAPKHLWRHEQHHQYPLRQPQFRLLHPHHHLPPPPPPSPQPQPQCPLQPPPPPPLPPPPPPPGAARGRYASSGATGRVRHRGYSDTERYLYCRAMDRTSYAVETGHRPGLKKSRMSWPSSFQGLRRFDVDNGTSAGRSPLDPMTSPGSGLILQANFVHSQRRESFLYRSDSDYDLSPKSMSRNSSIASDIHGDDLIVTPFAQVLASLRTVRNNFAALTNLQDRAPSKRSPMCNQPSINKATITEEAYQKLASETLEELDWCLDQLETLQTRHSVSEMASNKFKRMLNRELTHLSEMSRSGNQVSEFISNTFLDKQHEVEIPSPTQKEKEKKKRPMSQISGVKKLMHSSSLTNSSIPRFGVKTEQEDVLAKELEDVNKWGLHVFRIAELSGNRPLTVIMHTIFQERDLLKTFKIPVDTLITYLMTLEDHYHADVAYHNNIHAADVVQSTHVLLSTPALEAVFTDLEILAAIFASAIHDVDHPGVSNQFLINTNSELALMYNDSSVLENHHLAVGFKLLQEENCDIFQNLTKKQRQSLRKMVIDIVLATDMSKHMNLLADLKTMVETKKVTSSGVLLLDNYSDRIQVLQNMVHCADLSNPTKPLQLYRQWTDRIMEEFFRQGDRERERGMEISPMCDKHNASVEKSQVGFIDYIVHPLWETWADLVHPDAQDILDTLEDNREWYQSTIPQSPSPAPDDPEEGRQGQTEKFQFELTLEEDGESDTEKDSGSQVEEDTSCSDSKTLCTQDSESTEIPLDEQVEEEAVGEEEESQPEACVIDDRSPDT

RAW264.7 = experiment: Inhibition of LPS-induced TNFalpha production in mouse RAW264.7 cells pre-incubated with compound for 30 mins before LPS challenge by ELISA; format: functional, cell-based

T1 sequence (Q07343 whole entry): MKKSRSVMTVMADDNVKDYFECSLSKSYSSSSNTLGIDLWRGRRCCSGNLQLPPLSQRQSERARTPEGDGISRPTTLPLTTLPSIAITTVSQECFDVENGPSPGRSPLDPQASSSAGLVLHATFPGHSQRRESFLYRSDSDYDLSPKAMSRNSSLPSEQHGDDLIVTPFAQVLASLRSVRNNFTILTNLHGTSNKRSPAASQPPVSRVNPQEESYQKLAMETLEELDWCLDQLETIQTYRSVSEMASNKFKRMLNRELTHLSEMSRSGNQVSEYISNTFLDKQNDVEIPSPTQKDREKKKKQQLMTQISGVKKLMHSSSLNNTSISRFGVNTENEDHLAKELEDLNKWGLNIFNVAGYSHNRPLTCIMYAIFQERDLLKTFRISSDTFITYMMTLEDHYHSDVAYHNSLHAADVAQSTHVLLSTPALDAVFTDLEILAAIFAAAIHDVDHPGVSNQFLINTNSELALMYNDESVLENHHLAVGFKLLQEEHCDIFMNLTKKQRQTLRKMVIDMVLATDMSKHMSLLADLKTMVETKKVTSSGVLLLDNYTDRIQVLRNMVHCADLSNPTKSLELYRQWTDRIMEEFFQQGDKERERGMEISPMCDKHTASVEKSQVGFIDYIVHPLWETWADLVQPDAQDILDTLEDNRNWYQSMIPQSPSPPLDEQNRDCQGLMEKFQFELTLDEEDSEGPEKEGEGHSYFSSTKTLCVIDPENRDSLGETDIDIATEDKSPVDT

Row | inhibition [1] | Structure (SMILES) | other results
1 | 31% | CCOC(=O)C1=CN(Cc2cccc(Cl)c2)C=C(C(=O)OCC)C1Cc1ccccc1 | –
2 | 21% | CCOC(=O)C1=CN(Cc2ccc(C(F)(F)F)cc2)C=C(C(=O)OCC)C1c1ccc(OC)cc1 | –
3 | 30.5% | CCOC(=O)C1=CN(c2ccccc2)C=C(C(=O)OCC)C1c1ccc(Cl)cc1 | –
4 | 95% | CCOC(=O)C1=CN(Cc2ccc(OC)c(OC)c2)C=C(C(=O)OCC)C1c1c[nH]c2ccccc12 | IC50 [2]: 540 nM; IC50 [3]: 650 nM; IC50 (RAW264.7): 3200 nM
5 | 35% | CCOC(=O)C1=CN(Cc2ccc(C(F)(F)F)cc2)C=C(C(=O)OCC)C1c1ccc(O)cc1 | –
6 | 58% | CCOC(=O)C1=CN(Cc2ccccc2Cl)C=C(C(=O)OCC)C1c1ccc(OC)cc1 | –
7 | 17% | CCCCCCCCCCCCCCCCN1C=C(C(=O)OCC)C(c2ccc(OC)cc2)C(C(=O)OCC)=C1 | –
8 | 33% | CCOC(=O)C1=CN(Cc2ccccc2Cl)C=C(C(=O)OCC)C1c1ccccc1 | –
9 | 23% | CCOC(=O)C1=CN(c2ccc(Cl)cc2)C=C(C(=O)OCC)C1c1ccc(Cl)cc1 | –
10 | 28% | CCOC(=O)C1=CN(CC2CCCCC2)C=C(C(=O)OCC)C1c1ccc(Cl)cc1 | –
11 | 48% | CCOC(=O)C1=CN(Cc2ccccc2OC)C=C(C(=O)OCC)C1C1CC1 | –
12 | 49% | CCOC(=O)C1=CN(Cc2ccccc2Cl)C=C(C(=O)OCC)C1c1ccc(O)cc1 | –
13 | 80% | CCOC(=O)C1=CN(Cc2ccc(OC)c(OC)c2)C=C(C(=O)OCC)C1c1ccc(Cl)cc1 | IC50 [2]: 3710 nM; IC50 [3]: 2780 nM

Further lines, the molecule ahead of its results:

Row | Structure (SMILES) | inhibition [1] | other results
14 | CCOC(=O)C1=CN(Cc2ccc3c(c2)OCO3)C=C(C(=O)OCC)C1c1ccc(O)cc1 | 72% | –
15 | CCOC(=O)C1=CN(c2ccc(Cl)cc2)C=C(C(=O)OCC)C1Cc1ccccc1 | 57.5% | –
16 | CCOC(=O)C1=CN(Cc2ccc(Cl)cc2)C=C(C(=O)OCC)C1c1ccc(Cl)cc1 | 15% | –
17 | CCOC(=O)C1=CN(c2ccc(OC)cc2)C=C(C(=O)OCC)C1c1ccc(Cl)cc1 | 33% | –
18 | C=CCN1C=C(C(=O)OCC)C(c2ccc(O)cc2)C(C(=O)OCC)=C1 | 51.5% | –
19 | CCOC(=O)C1=CN(Cc2ccc3c(c2)OCO3)C=C(C(=O)OCC)C1c1ccc(OC)cc1 | 42% | –
20 | CCOC(=O)C1=CN(Cc2ccc(Cl)cc2)C=C(C(=O)OCC)C1c1cccc(F)c1 | 8% | –
21 | CCOC(=O)C1=CN(Cc2ccc(OC)c(OC)c2)C=C(C(=O)OCC)C1Cc1ccccc1 | 79% | –
22 | CCOC(=O)C1=CN(Cc2ccc(OC)cc2)C=C(C(=O)OCC)C1c1cccc(F)c1 | 28% | –
23 | CCOC(=O)C1=CN(Cc2ccc(OC)c(OC)c2)C=C(C(=O)OCC)C1c1cccc([N+](=O)[O-])c1 | 88% | IC50 [2]: 1570 nM; IC50 [3]: 2890 nM
24 | CCOC(=O)C1=CN(Cc2ccc(OC)c(OC)c2)C=C(C(=O)OCC)C1c1cccc2ccccc12 | 75% | –
25 | C=CCN1C=C(C(=O)OCC)C(c2ccc(Cl)cc2)C(C(=O)OCC)=C1 | 49.5% | –
26 | CCOC(=O)C1=CN(Cc2ccc(OC)cc2)C=C(C(=O)OCC)C1c1ccc(Cl)cc1 | 23% | –
27 | CCOC(=O)C1=CN(Cc2ccc(OC)c(OC)c2)C=C(C(=O)OCC)C1c1cccc(Cl)c1 | 78% | –
28 | CCOC(=O)C1=CN(Cc2ccc(OC)cc2)C=C(C(=O)OCC)C1c1ccc([N+](=O)[O-])cc1 | 38% | –
29 | CCCCCCCCN1C=C(C(=O)OCC)C(c2ccc(OC)cc2)C(C(=O)OCC)=C1 | 25% | –
